Data from paper PMC9900783 (bioRxiv, 2023).
Like-named read-outs stand apart in the source and are kept apart here.

How the values were obtained:
Format in all cases: biochemical
[1] = target: T1, Nape-pld (Mus musculus, UniProt Q8BH82); assay: fluorogenic PED-A1 hydrolysis assay, activation; settings: read-out: EC50 μM^b (95% CI)
[2] = target: NAPE-PLD (Homo sapiens, UniProt Q6IQ20); assay: recombinant human enzyme, PED-A1 fluorogenic assay, activation
[3] = target: T1, Nape-pld; assay: fluorogenic PED-A1 hydrolysis assay, activation; settings: read-out: EC50 μM^b (95% CI); remark: listed apart in the source
[4] = target: T2, soluble epoxide hydrolase (sEH) (Homo sapiens, UniProt P34913); assay: sEH activity assay kit
T2 sequence (P34913 1-555): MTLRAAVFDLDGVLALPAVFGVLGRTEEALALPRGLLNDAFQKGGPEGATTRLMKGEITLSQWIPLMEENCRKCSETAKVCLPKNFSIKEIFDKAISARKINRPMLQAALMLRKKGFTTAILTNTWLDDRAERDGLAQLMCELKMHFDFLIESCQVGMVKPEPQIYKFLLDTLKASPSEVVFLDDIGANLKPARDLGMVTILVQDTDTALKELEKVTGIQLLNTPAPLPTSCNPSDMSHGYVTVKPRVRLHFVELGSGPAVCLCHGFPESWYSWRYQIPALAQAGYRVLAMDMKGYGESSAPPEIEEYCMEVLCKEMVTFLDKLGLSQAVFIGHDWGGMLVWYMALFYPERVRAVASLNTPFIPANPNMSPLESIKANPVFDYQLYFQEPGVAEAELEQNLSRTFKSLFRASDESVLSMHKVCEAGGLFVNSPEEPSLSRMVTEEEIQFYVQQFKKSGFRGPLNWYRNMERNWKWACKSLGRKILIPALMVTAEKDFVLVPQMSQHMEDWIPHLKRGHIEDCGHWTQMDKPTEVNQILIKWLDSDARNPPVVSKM

[5] = target: T1, Nape-pld; assay: fluorogenic PED-A1 hydrolysis assay, activation; settings: read-out: EC50 μM^b (95% CI); remark: listed apart in the source

T1 sequence (Q8BH82 whole entry): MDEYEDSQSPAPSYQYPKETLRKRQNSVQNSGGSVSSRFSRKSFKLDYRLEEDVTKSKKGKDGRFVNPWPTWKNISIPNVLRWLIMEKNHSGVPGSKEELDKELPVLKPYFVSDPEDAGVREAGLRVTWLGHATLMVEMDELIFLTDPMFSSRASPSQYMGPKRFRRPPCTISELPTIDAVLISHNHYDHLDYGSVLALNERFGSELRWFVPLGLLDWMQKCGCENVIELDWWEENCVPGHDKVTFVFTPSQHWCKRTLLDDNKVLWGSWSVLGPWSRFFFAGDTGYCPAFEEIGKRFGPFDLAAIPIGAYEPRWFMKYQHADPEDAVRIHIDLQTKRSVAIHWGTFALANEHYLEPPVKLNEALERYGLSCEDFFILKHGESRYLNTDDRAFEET
Chain of NAPE-PLD (Q6IQ20 whole entry): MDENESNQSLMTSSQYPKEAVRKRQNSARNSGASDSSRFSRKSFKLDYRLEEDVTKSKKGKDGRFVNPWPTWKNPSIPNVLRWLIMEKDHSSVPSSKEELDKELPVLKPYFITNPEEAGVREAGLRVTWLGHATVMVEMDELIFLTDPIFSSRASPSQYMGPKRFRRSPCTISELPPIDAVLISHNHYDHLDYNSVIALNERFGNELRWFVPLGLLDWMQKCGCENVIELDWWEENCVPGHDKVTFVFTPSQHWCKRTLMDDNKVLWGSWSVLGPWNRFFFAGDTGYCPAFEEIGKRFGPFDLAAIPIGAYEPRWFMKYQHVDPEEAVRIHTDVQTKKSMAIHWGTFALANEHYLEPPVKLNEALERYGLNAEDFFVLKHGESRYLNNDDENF

Cc1ccc2nc(NC(=O)C3CCN(S(=O)(=O)c4ccc(Cl)cc4)CC3)sc2c1 [compound 5, VU539]
EC50 [1]: 0.74 µM

Cc1ccc(C)c2sc(NC(=O)C3CCN(S(=O)(=O)c4ccc(F)cc4)CC3)nc12 [compound 9, VU533]
EC50 [2]: 200 nM | EC50 [3]: 0.3 µM

Cc1cc(C)c2sc(NC(=O)C3CCN(S(=O)(=O)c4ccc(F)cc4)CC3)nc2c1 [compound 8, VU534]
IC50 [4]: 1200 nM | EC50 [2]: 930 nM | EC50 [5]: 0.3 µM

Cc1ccc2nc(NC(=O)C3CCN(S(=O)(=O)c4ccc(F)cc4)CC3)sc2c1 [compound 3, VU486]
EC50 [1]: 0.32 µM
